Experimental data as given in patent publication US12551493B2, “Composition for enhancing therapeutic effect of stem cell, comprising immunosuppressant, and method for enhancing therapeutic effect of stem cell using same” (SAMSUNG LIFE PUBLIC WELFARE FOUNDATION, priority 2019, dated 2026).

How the values were obtained:
Type in all cases: in vivo
Iba-1 microglia = assay: IHC of Iba-1 microglia in mouse brain after hMSC administration; details: normal C57B/L6 mice, hMSCs plus immunosuppressant, day 7, compared to hMSC group
Protocol: (§1) On day 7 after administration of MEM or hMSCs, the brain was extracted by performing cardiac perfusion, and then fixed in PFA, and histological staining was performed by sectioning tissue.
(§2) MEM or hMSCs were administered to normal C57BL/6 and immunodeficient BALB/c nude mice under the same conditions as in Example 3. […]

[1] = test system: human-derived mesenchymal stem cells (hMSCs); assay: qPCR of human-specific ALU DNA sequence in mouse brain (residual amount of hMSCs); details: normal C57B/L6 mice, hMSCs plus immunosuppressant, compared to hMSC-alone administration group
helper T cells (CD4) = assay: IHC of helper T cells (CD4) in mouse brain after hMSC administration; details: normal C57B/L6 mice, hMSCs plus immunosuppressant, day 7, compared to hMSC group
Protocol: as §1, §2

With `C=CC[C@@H]1/C=C(\C)C[C@H](C)C[C@H](OC)[C@H]2O[C@@](O)(C(=O)C(=O)N3CCCC[C@H]3C(=O)O[C@H](/C(C)=C/[C@@H]3CC[C@@H](O)[C@H](OC)C3)[C@H](C)[C@@H](O)CC1=O)[C@H](C)C[C@@H]2OC` [tacrolimus] the “expression of Iba-1 (IHC)” value (Iba-1 microglia) was “not statistically significant”, the “retention rate (survival rate) of stem cells (qPCR)” value [1] was “enhanced” and the “expression of CD4 (IHC)” value (helper T cells (CD4)) was “reduced”.
